# Tests used:
# Metabolic CYP enzymes = details: cited from earlier work
# Transporters = details: cited from earlier work
# [1] = after multiple doses; cited from earlier work
# platelet aggregation = details: day 2 ratio (90 % CI 68.20–71.62); data on file
SMILES,Metabolic CYP enzymes inhibited (Metabolic CYP enzymes),Transporters inhibited (Transporters),also measured
C=C[C@H]1C[N@@]2CC[C@H]1C[C@@H]2[C@@H](O)c1ccnc2ccc(OC)cc12 [Quinidine],Strong 2D6,P-gp; OCT2,
CO[C@H]1/C=C/O[C@@]2(C)Oc3c(C)c(O)c4c(O)c(c(/C=N/N5CCN(C)CC5)c(O)c4c3C2=O)NC(=O)/C(C)=C\C=C\[C@H](C)[C@H](O)[C@@H](C)[C@@H](O)[C@@H](C)[C@H](OC(C)=O)[C@@H]1C [Rifampin],,,Transporters induced (Transporters): P-gp
COc1ccc2nc([S@@+]([O-])Cc3ncc(C)c(OC)c3C)[nH]c2c1 [Esomeprazole],"2C9, 2C19 (competitive)",,gastric pH [1]: approximately 5
CCCCc1oc2ccc(NS(C)(=O)=O)cc2c1C(=O)c1ccc(OCCCN(CCCC)CCCC)cc1 [Dronedarone],Moderate 3A4,P-gp,
COc1ccc2cc([C@H](C)C(=O)O)ccc2c1 [Naproxen],,,baseline-corrected ratio for platelet aggregation (platelet aggregation): 69.89%
CC(=O)N1CCN(c2ccc(OCC3COC(Cn4ccnc4)(c4ccc(Cl)cc4Cl)O3)cc2)CC1 (stereo not shown) [Ketoconazole],"Strong 3A4; weak 2C8, 2C19",P-gp,

# From publication PMC4875962 (Clinical Pharmacokinetics, 2015)
